Data published in article PMC5867665, “Targeting Multiple Effector Pathways in Pancreatic Ductal Adenocarcinoma with a G-Quadruplex-Binding Small Molecule” (Journal of Medicinal Chemistry, 2018).

Tested on: DNA human telomeric G4 sequence 5′-d(GGGTTAGGGTTAGGGTTAGGG)-3′
Assay: Quantitative G4 binding (fluorescence anisotropy and direct fluorescence titrations)
Protocol: Quantitative binding estimates as KD values were obtained from fluorescence anisotropy titrations (MM41) and direct fluorescence titrations (CM03). The DNA human telomeric G4 sequence 5′-d([…])-3′ was used to enable direct comparisons to be made with the modeling studies. Both compounds bind with nanomolar affinity to this DNA G4, with a ∼3-fold difference between MM41 (20 ± 2 nM) and CM03 (67 ± 4 nM).
Human telomeric DNA G4 was prepared using oligonucleotides purchased from Integrated DNA Technologies (Coralville, IA, USA). The DNA purity and sequence was verified by mass spectrometry. Desalted oligonucleotide sequences were initially suspended in 150 mM NH4OAc (pH 6.8) in nuclease-free water to yield a final concentration of 1 mM and determined spectroscopically at 260 nm using the nearest-neighbor method. […]
Fluorescence anisotropy measurements were obtained on a Variant Cary Eclipse fluorescence spectrophotometer (Agilent Technologies, Santa Clara, CA, USA) equipped with a polarization attachment. […]
To determine dissociation constants, MM41 was added to a 3 mL volume of the experimental buffer (50 mM KCl, 10 mM Tris-HCl, 1 mM EDTA in nuclease-free water at 25 °C, pH 7.3) in a quartz fluorescence cuvette at a fixed concentration of 50 nM, and G4 was titrated into the cuvette. […] Each set of measurements were taken from a 50 s average reading measurement (PMT = 630 V). […]

O=C1c2ccc3c4c(c(NCCN5CCCC5)cc(c24)C(=O)N1CCCN1CCOCC1)C(=O)N(CCCN1CCOCC1)C3=O [CM03, 2,7-bis(3-morpholinopropyl)-4-((2-(pyrrolidin-1-yl)ethyl)amino)benzo[lmn][3,8]phenanthroline-1,3,6,8(2H,7H)-tetraone]
difference in KD between MM41 and CM03: ~3 fold
